Test results published in patent publication US20080199480A1, “Methods for Identifying Risk of Type II Diabetes and Treatments Thereof” (SEQUENOM, INC., priority 2004, published 2008).
Each block holds one molecule with its values, some of them ahead of it.

Columns and labels:
EPHA3 = biological target: T1, EPHA3 (Homo sapiens, UniProt P29320); experiment: DELFIA EPHA3 kinase assay (phosphorylation of biotin-Src-peptide); assay type: biochemical; conditions: EPHA3 30 nM, biotin-Src-peptide 1 μM, ATP 30 μM, 3 hr incubation at 37° C., read-out: EPHA3 Potency IC50
T1 construct: human EPHA3 intracellular domain (amino acids 571-986) containing juxtamembrane, kinase and SAM regions; 6xHis; made in house; host or cells: E. coli (Rosetta DE cells)
T1 sequence (P29320 571-983 limits assumed): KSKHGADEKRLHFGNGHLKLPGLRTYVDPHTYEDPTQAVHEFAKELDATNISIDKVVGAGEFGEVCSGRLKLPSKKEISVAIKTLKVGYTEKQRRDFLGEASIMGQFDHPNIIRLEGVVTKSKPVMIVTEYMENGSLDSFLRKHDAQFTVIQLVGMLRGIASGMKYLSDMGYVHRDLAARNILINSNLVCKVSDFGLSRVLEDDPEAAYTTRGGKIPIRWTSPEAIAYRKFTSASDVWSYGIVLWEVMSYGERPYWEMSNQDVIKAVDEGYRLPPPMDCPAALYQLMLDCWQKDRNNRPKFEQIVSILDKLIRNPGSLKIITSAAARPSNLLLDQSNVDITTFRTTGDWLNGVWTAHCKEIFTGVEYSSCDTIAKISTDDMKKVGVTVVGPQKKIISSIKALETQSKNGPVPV
Method: An EPHA3 enzyme construct comprised the human EPHA3 intracellular domain (amino acids 571-986) containing juxtamembrane, kinase and SAM regions. It was expressed in E. coli as a recombinant protein. 6×His and NusA expression tags were used in pET28a and pET44a vectors (Novagen), respectively. Expression was carried out in Rosetta DE cells with IPTG induction followed by recombinant protein purification on a Ni-column using imidazole elution buffer.
The ATP concentrations are selected near the Michaelis-Menten constant (KM) for each individual kinase. Dose-response experiments are performed at ten different inhibitor concentrations in a 384-well plate format. The data are fitted to a standard four-parameter equation listed below:
Y=Min+(Max−Min)/(1+XIC50)̂H
These parameters are obtained by nonlinear regression algorithm built into ActivityBase software (available from ID Business Solutions Ltd., of Guildford, Surrey, UK).
The DELFIA method is a solid-phase, non-homogeneous system that measures enzymatic activity by quantitating the phosphorylation of an immobilized substrate. The compound names are provided in the “Compositions Comprising Diabetes-Directed Molecules” section.
In this experiment, EPHA3 (30 nM) was incubated with biotinylated substrate, biotin-Src-peptide (1 μM)+ATP (30 μM) in an assay medium (10 mM HEPES pH 7.4, 2 mM MgCl2, 10 μM MnCl2, 1.0 mM DTT, 0.01% Pluronic F-127) in the presence of test compounds. After 3 hr incubation at 37° C., the reaction was stopped (5 mM EDTA) and the substrate phosphorylation was quantified in DELFIA assay using Eu-labeled anti-phosphotyrosine antibody.

Differentiated 3T3-L1 [1] = experiment: Glucose uptake assay (insulin-mediated uptake of radioactive glucose); assay type: cell-based, mouse; conditions: 100 nM insulin for 10 minutes
Excerpt: One of the many responses of adipocytes and muscle cells after exposure, to insulin is the transport of glucose intracellularly. This transport is mediated by GLUT4, an insulin-regulatable glucose transporter. Insulin binding to insulin receptors on the cell surface results in autophosphorylation and activation of the intrinsic tyrosine kinase activity of the insulin receptor. Phosphorylated tyrosine residues on the insulin receptor and its endogenous targets activate several intracellular signaling pathways that eventually lead to the translocation of GLUT4 from intracellular stores to the extracellular membrane. Cells were plated in 6-well dishes, and grown to confluency. Cells were then differentiated with DMEM plus 10% fetal calf serum (FCS), 10 ug/mL insulin, 390 ng/mL dexamethasone and 112 ug/mL isobutylmethylxanthine for 2 days. After 2 days of differentiation, media was changed to maintenance media DMEM plus 10% FCS and 5 ug/mL insulin. Media was changed every 2 days thereafter. Cells were assayed for insulin-mediated glucose uptake 10 days after differentiation. On the day of the assay, cells were washed once with PBS, and serum starved by adding 2 mL of DMEM plus 2 mg/mL BSA for 3 hours. During serum starvation, recombinant rat ephrin-A5/Fc chimeric ligand was preclustered. […] Lysates were read in a Wallac 1450 Microbeta Liquid Scintillation and Luminescence Counter.

Differentiated 3T3-L1 [2] = experiment: Triacylglycerol (TG) assay; assay type: cell-based, mouse; conditions: 100 nM insulin, 2 hours
Excerpt: A direct metabolic consequence of glucose transport intracellularly is its incorporation into the fatty acid and glycerol moieties of triacylglycerol (TG). TGs are highly concentrated stores of metabolic energy, and are the major energy reservoir of cells. In mammals, the major site of accumulation of triacylglycerols is the cytoplasm of adipose cells. Adipocytes are specialized for the synthesis, and storage of TG, and for their mobilization into fuel molecules that are transported to other tissues through the bloodstream. It is likely that changes in the transport of glucose intracellularly can affect cytoplasmic stores of triacylglycerols.
Cells were plated in 6-well dishes, and grown to confluency. When cells reached confluency, cells were differentiated with DMEM plus 10% fetal calf serum (FCS), 10 ug/mL insulin, 390 ng/mL dexamethasone and 112 ug/mL isobutylmethylxanthine for 2 days. After 2 days of differentiation, media was changed to maintenance media DMEM plus 10%. FCS and […] insulin. On the day of the assay (day 9 post-differentiation), cells were washed once with PBS, and serum starved by adding 2 mL of DMEM plus 2 mg/ml BSA for 3 hours. During serum starvation, recombinant rat ephrin-A5/Fc chimeric ligand was preclustered. […] The assay was read at 500-550 nm.

[3] = system: resistin mRNA in differentiated 3T3-L1 cells; experiment: Quantitative assessment of mResistin levels (mRNA, PCR); assay type: cell-based, mouse; conditions: 10 nM insulin for 2 hours
Method: Resistin is a secreted factor specifically expressed in white adipocyte. […] Elevated levels of resistin have been measured in genetically obese, and high fat fed obese mice. It is therefore thought that resistin contributes to peripheral tissue insulin unresponsiveness, one of the pathological hallmarks of diabetes.
3T3-L1 cells were differentiated for 3 days as previously described and maintained for three days prior to splitting. At day 5 post-differentiation, differentiated cells were plated in 10 cm dish at a cell density of 3×10^6 cells. Cells were then serum starved on day 7 after initiation of differentiation. On day 8, cells were treated with pre-clustered recombinant rat ephrin-A5/Fc chimera as described above for 10 min and treated with 10 nM insulin for 2 hours. Cells were harvested, mRNA extracted using magnetic DYNAL beads and reverse transcribed to cDNA using. Superscript First-Strand Synthesis as described by the manufacturer. The following primers: forward primer; 5′ GTCGCTTCCTGATGTCGGTCA 3′, and reverse primer, 5′ GGCCAGCCTGGACTATATGAG 3′, were used in 15 uL PCR reaction using 55 deg annealing temperature and 30 cycles of amplification.

[4] = biological target: T2, EPHA3 on differentiated 3T3-L1 cells (mouse) (UniProt P29319); experiment: cell-based or functional assay
T2 sequence (looked up): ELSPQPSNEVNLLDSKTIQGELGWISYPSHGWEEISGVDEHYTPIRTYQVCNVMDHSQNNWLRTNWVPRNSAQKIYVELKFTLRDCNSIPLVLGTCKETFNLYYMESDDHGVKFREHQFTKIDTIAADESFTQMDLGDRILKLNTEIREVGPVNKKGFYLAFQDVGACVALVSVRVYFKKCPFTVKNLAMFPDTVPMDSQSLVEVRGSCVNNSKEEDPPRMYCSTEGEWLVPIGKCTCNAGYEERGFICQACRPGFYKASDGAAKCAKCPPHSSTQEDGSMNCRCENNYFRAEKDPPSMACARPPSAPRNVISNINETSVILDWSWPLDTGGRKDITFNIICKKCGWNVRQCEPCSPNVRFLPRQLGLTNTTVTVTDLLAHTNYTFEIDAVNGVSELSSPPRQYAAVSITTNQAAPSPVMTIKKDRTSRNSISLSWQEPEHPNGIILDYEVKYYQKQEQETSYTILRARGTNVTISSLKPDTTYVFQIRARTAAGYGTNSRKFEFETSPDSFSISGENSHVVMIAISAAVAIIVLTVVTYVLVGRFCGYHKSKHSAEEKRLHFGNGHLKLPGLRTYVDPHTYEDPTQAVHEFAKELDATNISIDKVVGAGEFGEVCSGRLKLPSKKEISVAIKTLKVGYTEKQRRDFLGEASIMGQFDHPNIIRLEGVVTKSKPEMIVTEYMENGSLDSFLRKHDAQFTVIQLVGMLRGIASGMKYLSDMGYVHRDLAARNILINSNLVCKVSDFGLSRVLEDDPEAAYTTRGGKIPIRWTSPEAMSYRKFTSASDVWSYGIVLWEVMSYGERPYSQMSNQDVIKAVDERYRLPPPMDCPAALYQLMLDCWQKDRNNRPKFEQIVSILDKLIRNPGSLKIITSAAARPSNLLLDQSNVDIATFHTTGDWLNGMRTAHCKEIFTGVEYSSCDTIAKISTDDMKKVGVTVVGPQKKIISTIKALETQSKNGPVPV

IC50 (EPHA3): 400 nM
Molecule: COc1cc2c(Nc3ccc(Cl)c(Cl)c3)ncnc2cc1OCC1CN(C)CCO1 (stereo not drawn) [sqnm-11]

IC50 (EPHA3): 4500 nM
Molecule: COc1cc2ncnc(Nc3cccc(Cl)c3)c2cc1OC [sqnm-4]

IC50 (EPHA3): 200 nM
Molecule: COc1cc2c(Nc3ccc(Cl)c(Cl)c3)ncnc2cc1OCC1CN(C2CCCC2)CCO1 (stereo not drawn) [sqnm-9]

IC50 (EPHA3): 200 nM
Molecule: COc1cc2c(Nc3ccc(Cl)c(Br)c3)ncnc2cc1OCC1CN(C)CCO1 (stereo not drawn) [sqnm-12]

IC50 (EPHA3): 200 nM
Molecule: COc1cc2c(Nc3ccc(Cl)cc3F)ncnc2cc1OCC1CN(C)CCO1 (stereo not drawn) [sqnm-14]

IC50 (EPHA3): 300 nM
Molecule: COc1cc2c(Nc3ccc(Cl)cc3F)ncnc2cc1OCC1CN(C2CCCC2)CCO1 (stereo not drawn) [sqnm-10]

IC50 (EPHA3): 900 nM
Molecule: COc1cc2c(Nc3ccc(Cl)cc3F)ncnc2cc1OCC1CCN(C)CC1 [sqnm-7]

IC50 (EPHA3): 500 nM
Molecule: COc1cc2ncnc(Nc3ccc(Cl)cc3F)c2cc1OC [sqnm-5]

IC50 (EPHA3): 11000 nM
Molecule: Oc1cccc(Nc2ncnc3ccccc23)c1 [sqnm-16]

IC50 (EPHA3): 2000 nM
Molecule: COc1cc2ncnc(Nc3ccc(Cl)c(Cl)c3)c2cc1OC [sqnm-1]

IC50 (EPHA3): 800 nM
Molecule: COc1cc2c(Nc3ccc(Cl)cc3F)ncnc2cc1OCC1CN(C(C)C)CCO1 (stereo not drawn) [sqnm-15]

Molecule: insulin: porcine insulin used to stimulate differentiated 3T3-L1 cells
increase in uptake of radioactive glucose (Differentiated 3T3-L1 [1]): 22 fold
increase in TG stores (Differentiated 3T3-L1 [2]): about 23%
resistin mRNA levels [3]: decrease

IC50 (EPHA3): 2000 nM
Molecule: COc1cc2c(Nc3cc(Cl)ccc3F)ncnc2cc1OCC1CCN(C)CC1 [sqnm-8]

insulin-mediated triacylglycerol (TG) stores, differentiated 3T3-L1, 10 min pretreatment with ephrin-A5 [4]: 10 % decrease
uptake of radioactive glucose, insulin-treated differentiated 3T3-L1, 10 min pretreatment with pre-clustered ephrin-A5 [4]: 20 % decrease
uptake of radioactive glucose, insulin-treated differentiated 3T3-L1, 90 min preincubation with pre-clustered ephrin-A5 [4]: 15 % decrease
B1: recombinant rat ephrin-A5/Fc chimeric ligand, preclustered with anti-human IgG, Fc γ fragment specific antibody (Fc fusion, part only; not given: Fc part, UniProt P97605 21-203, looked up, part only)
chain, part: QDPGSKVVADRYAVYWNSSNPRFQRGDYHIDVCINDYLDVFCPHYEDSVPEDKTERYVLYMVNFDGYSACDHTSKGFKRWECNRPHSPNGPLKFSEKFQLFTPFSLGFEFRPGREYFYISSAIPDNGRRSCLKLKVFVRPTNSCMKTIGVRDRVFDVNDKVENSLEPADDTVHESAEPSRGEN
